According to patent publication US12319690B2, “Selective CDK 4/6 inhibitor cancer therapeutics” (LUNELLA BIOTECH, INC., priority 2019, dated 2025):

Tests used:
Assay type in all cases: cell-based, human
[1] = system: MCF7 cell line (ER+ breast cancer); assay: 2D-cell viability assay (Hoechst staining), MCF7 monolayer; settings: for IC50: Homo sapiens, MCF7, 2D-cell viability assay, MCF7
Description: (§1) As used in the tables, “IC50 (MCF7 mammosphere)” refers to the half maximal inhibitory concentration in the 3D-mammosphere assay, using the ER+ breast cancer cell line, MCF7. The term “IC50 (MCF7 monolayer)” refers to the half maximal inhibitory concentration in the 2D-cell viability assay, using the ER+ breast cancer cell line, MCF7. The term “IC50 (BJ1 monolayer)” refers to the half maximal inhibitory concentration in the 2D-cell viability assay, using the immortalized non-tumoral fibroblast cell line, hTERT-BJ1. The term “SI (mammosphere/monolayer MCF7)” refers to the mammosphere selectivity index, a ratio between IC50 values comparing the biological activity in the 3D and 2D assays against MCF7. The term “SI (BJ1/MCF7 monolayer)” refers to the cancer selectivity index, a ratio between IC50 values comparing the biological activity in the cell viability assays against MCF7 and hTERT-BJ1. A Hoechst-based viability assay was used to characterize the selectivity of compounds according to the present approach, for the preferential targeting of cancer cells. Briefly, MCF7 cell monolayers were treated with a compound at concentrations ranging from 1 μM to 100 μM, for a period of one day. Cell viability was assessed using Hoechst 33342, a nuclear dye that stains DNA in live cells. The viability of normal human fibroblasts (hTERT-BJ1) treated with the compounds described herein was also assessed in parallel. Quantitation was performed with a plate-reader.

[2] = system: MCF7 cell line (ER+ breast cancer); assay: 3D-mammosphere formation assay; settings: for IC50: Homo sapiens, MCF7, 3D-mammosphere assay; for inhibition of MCF7 cells in the mammosphere assay compared to parent compound: concentrations from 1 μM to 100 μM; for SI (mammosphere/monolayer MCF7): mammosphere selectivity index, ratio between IC50 values in the 3D and 2D assays against MCF7
Description: As used in the tables, “IC50 (MCF7 mammosphere)” refers to the half maximal inhibitory concentration in the 3D-mammosphere assay, using the ER+ breast cancer cell line, MCF7. The term “IC50 (MCF7 monolayer)” refers to the half maximal inhibitory concentration in the 2D-cell viability assay, using the ER+ breast cancer cell line, MCF7. The term “IC50 (BJ1 monolayer)” refers to the half maximal inhibitory concentration in the 2D-cell viability assay, using the immortalized non-tumoral fibroblast cell line, hTERT-BJ1. The term “SI (mammosphere/monolayer MCF7)” refers to the mammosphere selectivity index, a ratio between IC50 values comparing the biological activity in the 3D and 2D assays against MCF7. The term “SI (BJ1/MCF7 monolayer)” refers to the cancer selectivity index, a ratio between IC50 values comparing the biological activity in the cell viability assays against MCF7 and hTERT-BJ1.
FIGS. 1-3 are dose-response curves for various compounds described herein, using the mammosphere assay. The assay was performed using the MCF7 cell line. The curves are plotted as a mean of two independent experiments, and the standard deviation for each point is represented by vertical bars. The inhibition percentage is shown as a function of the log of the concentration (μM). […] Similar effects are expected for compounds having the general formula [1D].
Mammosphere formation assay: A single cell suspension was prepared using enzymatic (1× Trypsin-EDTA, Sigma Aldrich, cat. #T3924), and manual disaggregation (25 gauge needle). Five thousand cells were plated with in mammosphere medium (DMEM-F12/B27/20 ng/ml EGF/PenStrep), under non-adherent conditions, in six wells plates coated with 2-hydroxyethylmethacrylate (poly-HEMA, Sigma, cat. #P3932). Cells were grown for 5 days and maintained in a humidified incubator at 37° C. at an atmospheric pressure in 5% (v/v) carbon dioxide/air. After 5 days, 3D spheroids with a diameter greater than 50 μm were counted using a microscope, fitted with a graticule eye-piece, and the percentage of cells which formed spheroids was calculated and normalized to one (1=100% MFE; mammosphere forming efficiency). Mammosphere assays were performed in triplicate and repeated three times independently.

[3] = system: hTERT-BJ1 (immortalized non-tumoral fibroblast cell line); assay: 2D-cell viability assay (Hoechst staining), hTERT-BJ1 monolayer; settings: for IC50: Homo sapiens, Fibroblast, 2D-cell viability assay, hTERT-BJ1; for SI (BJ1/MCF7 monolayer): cancer selectivity index, ratio between IC50 values in cell viability assays against MCF7 and hTERT-BJ1
Description: as §1

Compound | IC50 [1] | IC50 ([2]; MCF7) | potency against MCF7 cells compared to parent compound (dose-response curves) ([1]; Hoechst staining assay, MCF7, FIG. 4 (FIG. 1 cited in same passage)) | inhibition of cell propagation ([2]; at concentrations as low as 1 μM, preliminary laboratory evaluations) | inhibition of MCF7 cells in the mammosphere assay compared to parent compound [2] | SI (mammosphere/monolayer MCF7) [2] | fold improvement in potency in the 3D-mammosphere assay compared to the parent compound ([2]; vs. Ribociclib, MCF7) | IC50 [3] | SI (BJ1/MCF7 monolayer) [3] | potency on hTERT-BJ1 compared to Compound [1C] (dose-response curves) ([3]; Hoechst staining assay, hTERT-BJ1, FIG. 7) | IC50 ([3]; Table 3, unit inferred) | non-toxic in the 2D-cell viability assay up to a concentration ([1]; MCF7 monolayer)
CCCCCCCCCCCCCC(=O)N1CCN(c2ccc(Nc3ncc4cc(C(=O)N(C)C)n(C5CCCC5)c4n3)nc2)CC1 [Compound [1C], 7-cyclopentyl-N,N-dimethyl-2-[[5-(4-tetradecanoylpiperazin-1-yl)-2-pyridyl]amino]pyrrolo[2,3-d]pyrimidine-6-carboxamide] | ~2000 nM | ~200 nM | more potent | ~100% | remarkably improved inhibition | 10 | 7 fold | > 90000 nM | >45 |  |  | 
CCN1CCN(Cc2ccc(Nc3ncc(F)c(-c4cc(F)c5nc(C)n(C(C)C)c5c4)n3)nc2)CC1 [Abemaciclib] | 11000 nM | < 40 nM |  |  |  | >50 |  |  | 2.7 |  | 30000 ± 6000 nM | 
CCCCCCCCCCCCCC(=O)N1CCN(c2ccc(Nc3ncc4c(C)c(C(C)=O)c(=O)n(C5CCCC5)c4n3)nc2)CC1 [Compound [2C], 6-acetyl-8-cyclopentyl-5-methyl-2-[[5-(4-tetradecanoylpiperazin-1-yl)-2-pyridyl]amino]pyrido[2,3-d]pyrimidin-7-one] | > 30000 nM | ~5100 nM |  |  | remarkably improved inhibition | >5 |  | > 90000 nM |  |  |  | ≤ 30 µM

Now from value to compound, other results behind:

IC50 [1] | IC50 ([2]; MCF7) | Compound | potency against MCF7 cells compared to parent compound (dose-response curves) ([1]; Hoechst staining assay, MCF7, FIG. 4 (FIG. 1 cited in same passage)) | inhibition of cell propagation ([2]; at concentrations as low as 1 μM, preliminary laboratory evaluations) | inhibition of MCF7 cells in the mammosphere assay compared to parent compound [2] | SI (mammosphere/monolayer MCF7) [2] | fold improvement in potency in the 3D-mammosphere assay compared to the parent compound ([2]; vs. Ribociclib, MCF7) | IC50 [3] | SI (BJ1/MCF7 monolayer) [3] | potency on hTERT-BJ1 compared to Compound [1C] (dose-response curves) ([3]; Hoechst staining assay, hTERT-BJ1, FIG. 7) | IC50 ([3]; Table 3, unit inferred) | non-toxic in the 2D-cell viability assay up to a concentration ([1]; MCF7 monolayer)
~2000 nM | ~1500 nM | CN(C)C(=O)c1cc2cnc(Nc3ccc(N4CCNCC4)cn3)nc2n1C1CCCC1 [Ribociclib, 7-cyclopentyl-N,N-dimethyl-2-[(5-piperazin-1-ylpyridin-2-yl)amino]pyrrolo[2,3-d]pyrimidine-6-carboxamide] |  |  |  | 1.3 |  | > 90000 nM | >45 | more potent at most concentrations tested |  | 
~100 nM | ~200 nM | CC(=O)c1c(C)c2cnc(Nc3ccc(N4CCNCC4)cn3)nc2n(C2CCCC2)c1=O [Palbociclib, 6-acetyl-8-cyclopentyl-5-methyl-2-(5-piperazin-1-yl-pyridin-2-ylamino)-8H-pyrido[2,3-d]pyrimidin-7-one] |  |  |  | non-selective |  | > 90000 nM | >900 |  |  | 
